Test results published in paper PMC5584973, “Characterization of novel bangle lectin from Photorhabdus asymbiotica with dual sugar-binding specificity and its effect on host immunity” (PLoS Pathogens, 2017).
Like-named read-outs stand apart in the source and are kept apart here.

Tests used:
[1] = molecular target: T1, PHL (Photorhabdus asymbiotica, UniProt C7BLE4); assay type: binding; details: for Median: calculated from hexaplicates
[2] = molecular target: T1, PHL; test: SPR inhibition of PHL binding to immobilized L-fucoside; details: for Potency relative to L-Fuc: SPR inhibition, from IC50; for IC50: SPR, PHL 0.25 μM binding to immobilized L-fucoside, 25°C, read-out: IC50
Description: SPR inhibition experiments were performed using the same conditions described above. The PHL lectin (0.25 μM final concentration) was mixed with various concentrations of inhibitors (1M – 0.01 mM) and injected onto the sensor chip. Pure PHL lectin was used as a control (0% inhibition). The response of the lectin bound to the sugar surface at equilibrium was plotted against the concentration of inhibitor in order to determine IC50.

[3] = molecular target: T1, PHL; test: Isothermal titration calorimetry (ITC); assay type: binding; details: ITC at 25°C
Description: ITC experiments were performed using an ITC200 calorimeter (Malvern, England). Experiments were performed at 25°C in buffer A (300 mM NaCl, 20 mM Tris/HCl, pH 7.5). Carbohydrate ligands were dissolved in the same buffer. Protein in the cell (50 μM) was titrated by consecutive addition (2 μl) of the ligand in the syringe (1.5–50 mM) while stirring at 1000 rpm. Control experiments performed with injections of buffer in the protein solution yielded insignificant signals. Integrated heat effects were analyzed by nonlinear regression using a single-site binding model in Origin 7 (Microcal). The experimental data fitted to a theoretical titration curve brought up stoichiometry (n), association constant Ka, and the enthalpy of binding ΔH. The other thermodynamic parameters such as free energy (ΔG) and […] (ΔS) were calculated from the equation ΔG = ΔH-TΔS = -RTlnKa, where T is the absolute temperature and R is the molar gas constant (8.314 J.mol^-1.K^-1). At least two independent titrations were carried out for each tested ligand.

[4] = molecular target: T1, PHL; test: Haemagglutination inhibition assay with PHL; assay type: cell-based; details: for Potency towards L-fucose: haemagglutination inhibition, from MIC; for MIC (minimal inhibitory concentration) of haemagglutination by PHL: microscopy
Description: A haemagglutination inhibition assay was performed to determine the specificity and semi-quantitative affinity of PHL interaction with the saccharides. A wide range of monosaccharides at concentrations from 50 mM to 0.5 mM were used for determining the lowest inhibiting concentration. A 20 μl mixture composed of 5 μl PHL (2mg/ml), 5 μl saccharide, and 10 μl 10% RBCs was prepared (all components of reaction were in PBS buffer). After 10 minutes, the reaction was observed using a Levenhuk microscope.

[5] = glycan array signal of PHL per printed glycan, microarray chip (Semiotic, Moscow; Slide number 10085636), 488 channel
[6] = glycan array signal of labelled PHL for the printed glycan/polysaccharide, Semiotic slide 10085636
[7] = stoichiometry fixed to 3, read-out: KD (n = 3)
[8] = stoichiometry fixed to 4, read-out: KD (n = 4)

T1 sequence (C7BLE4 1-369): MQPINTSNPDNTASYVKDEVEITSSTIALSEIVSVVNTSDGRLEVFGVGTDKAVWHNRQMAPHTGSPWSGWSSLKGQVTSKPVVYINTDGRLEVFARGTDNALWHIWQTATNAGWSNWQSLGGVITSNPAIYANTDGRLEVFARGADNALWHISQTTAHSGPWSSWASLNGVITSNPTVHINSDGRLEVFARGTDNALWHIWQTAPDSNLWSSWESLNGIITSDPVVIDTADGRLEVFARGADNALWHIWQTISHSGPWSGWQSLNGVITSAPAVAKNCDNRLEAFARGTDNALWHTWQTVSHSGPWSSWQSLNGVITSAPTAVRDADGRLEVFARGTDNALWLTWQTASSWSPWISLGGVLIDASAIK

Galβ1-6Galβ-sp4 gave a Median [1, 5] of 85.
4,6-O-Su2-Galβ1-4GlcNAcβ-sp2 was tested, and the Median [1, 6] was 77.
Galα1-3Galβ1-4GlcNAcβ-sp3 gave a Median [1, 6] of 70.
Work on Galα1-4GlcNAcβ-sp8 yielded a Median [1, 6] of 75.
Work on `CC(=O)N[C@H]1[C@@H](OC[C@H](N)C(=O)O)O[C@H](CO)[C@H](O)[C@@H]1O` [GalNAcα1-OSer] yielded a Median [1, 6] of 71.
In the case of GalNAcα1-3Galβ1-4(Fucα1-3)GlcNAcβ-sp3, the Median [1, 6] is reported as 73.
Work on `CC(=O)N[C@@H]1[C@@H](O)[C@H](O[C@@H]2O[C@H](CO)[C@@H](O)[C@H](O)[C@H]2NC(C)=O)[C@@H](CO)O[C@H]1NC(=O)C[C@H](N)C(=O)O` [GlcNAcβ1-4GlcNAcβ-Asn] yielded a Median [1, 6] of 77.
4-O-Su-Galβ1-4GlcNAcβ-sp3 showed a Median [1, 6] of 77.
For `O=C[C@H](O)[C@@H](O)[C@@H](O)[C@H](O)CO` [D-Gal, D-galactose], the “Potency relative to L-Fuc” value [2] was less than 0.01, the Kd ([3]; KD (n = 3), stoichiometry fixed to 3) was 890 ± 20 µM and the Kd ([3]; KD (n = 4), stoichiometry fixed to 4) was 830 ± 20 µM. The “Potency towards L-fucose” value [4] was less than 0.01.
With 6-O-Su-Galβ1-3GlcNAcβ-sp3 the Median [1, 6] was 73.
6-O-Su-Galβ1-3(6-O-Su)GlcNAcβ-sp2 gave a Median [1, 5] of 87.
For `CC(=O)N[C@H]1[C@@H](O[C@H]2[C@@H](O)[C@@H](CO)O[C@@H](O)[C@@H]2O[C@@H]2O[C@@H](C)[C@@H](O)[C@@H](O)[C@@H]2O)O[C@H](CO)[C@H](O)[C@@H]1O` [BGA trisaccharide], the “Potency relative to L-Fuc” value [2] was 1.21, the IC50 [2] was 300 µM and the Kd [3, 7] was 1450 ± 30 µM. The Kd [3, 8] was 1380 ± 40 µM, the “Potency towards L-fucose” value [4] was 1.3 and the “MIC (minimal inhibitory concentration) of haemagglutination by PHL” value [4] was 2500 µM.
For `COC[C@H]1O[C@@H](O[C@@H]2[C@@H](OC)[C@@H](OC)[C@H](Oc3ccc(OCCN)cc3)O[C@H]2C)[C@H](O)[C@@H](OC)[C@@H]1O` [3,6-O-Me2-Glcβ1-4(2,3-O-Me2)Rhaα-O-(p-C6H4)-OCH2CH2NH2], the “relative binding / preference on glycan array” value ([1]; PHL 200 μg/ml) was “most preferred complex saccharide”.
6-O-Su-Galβ1-3GalNAcα-sp3 showed a Median [1, 5] of 81.
With `CC(=O)N[C@H]1C(O)O[C@H](CO)[C@@H](O)[C@@H]1O[C@@H]1O[C@@H](C)[C@@H](O)[C@@H](O)[C@@H]1O` (stereo partly drawn) [Fucα1-3GlcNAc] the “Potency relative to L-Fuc” value [2] was 0.53, the IC50 [2] was 690 µM and the Kd [3, 7] was 3520 ± 210 µM. The Kd [3, 8] was 3430 ± 210 µM, the “Potency towards L-fucose” value [4] was 1.3 and the “MIC (minimal inhibitory concentration) of haemagglutination by PHL” value [4] was 2500 µM.
In the case of GalNAcα1-3(Fucα1-2)Galβ1-4GlcNAcβ-sp3, the Median [1, 5] is reported as 79.
“4,6-O-Su2-GalNAcβ1-4-(3-O-Ac)GlcNAcβ-sp3” gave a Median [1, 5] of 81.
